A short description of data set [1]: clinical. The settings on record: human, in vivo, iv, t1/2.
Data set [2] in a line: clinical. The conditions noted are these: human, in vivo, iv, Vdss.
A short description of data set [3]: clinical. The conditions noted are these: human, in vivo, iv.
A short description of data set [4]: clinical. The settings on record: human, in vivo, iv. The source holds these as a separate data set.
Data set [5] in a line: clinical. The settings on record: human, in vivo, iv, CL.

Square brackets hold non-standard residues; d marks the D form. Peptide text beside a SMILES is read from it. dPhe(4-Cl) = N[C@H](Cc1ccc(Cl)cc1)C(=O)O; d2Nal = N[C@H](Cc1ccc2ccccc2c1)C(=O)O; dCit = NC(=O)NCCC[C@@H](N)C(=O)O; d3Pal = N[C@H](Cc1cccnc1)C(=O)O

For orientation: half-life means how long it takes for the measured level to halve. The term Vd denotes a proportionality between amount in the body and measured concentration, not a real space. As usually defined, the MRT is the average time that molecules of a dose stay in the body. As a reminder, the fraction unbound is free concentration divided by total concentration. A word on the clearance: it is the rate of elimination divided by the concentration. In the data set “clinical [1]”, `CC(=O)N[C@H](Cc1ccc2ccccc2c1)C(=O)N[C@H](Cc1ccc(Cl)cc1)C(=O)N[C@H](Cc1cccnc1)C(=O)N[C@@H](CO)C(=O)N[C@@H](Cc1ccc(O)cc1)C(=O)N[C@H](CCCNC(N)=O)C(=O)N[C@@H](CC(C)C)C(=O)N[C@@H](CCCNC(=N)N)C(=O)N1CCC[C@H]1C(=O)N[C@H](C)C(N)=O` [CETRORELIX] (Ac-[d2Nal][dPhe(4-Cl)][d3Pal]SY[dCit]LRP[dA]-NH2) showed a half-life of 12 h. The Vd in the data set “clinical [2]” was determined as 0.39 L/kg. In addition, in the data set “clinical [3]”, the MRT was found to be 5.4 h. The fraction unbound in “clinical [4]” turned out to be 0.14. For the same compound, the clearance in the data set “clinical [5]” is 1.2 mL/min/kg.

The compound `CN(C)[C@@H]1C(O)=C(C(N)=O)C(=O)[C@@]2(O)C(O)=C3C(=O)c4c(O)cccc4[C@@](C)(O)[C@H]3[C@H](O)[C@@H]12` [OXYTETRACYCLINE] gave a half-life in “clinical [1]” of 10 h. Besides, the Vd in the data set “clinical [2]” stood at 1.7 L/kg. The same compound registered an MRT in the data set “clinical [3]” of 12 h. Further, the fraction unbound in the data set “clinical [4]” is 0.9. The compound also gave a clearance in the data set “clinical [5]” of 2 mL/min/kg.

The compound `Nc1ccc(O)c(C(=O)O)c1` [MESALAMINE] showed a half-life in the data set “clinical [1]” of 0.61 h. In “clinical [2]”, the Vd was 0.33 L/kg. In the data set “clinical [3]”, the MRT was found to be 0.59 h. In “clinical [4]”, this compound came in with a fraction unbound of 0.39. The clearance in the data set “clinical [5]” turned out to be 9.3 mL/min/kg.

Consider `CN[C@@H]1[C@@H](O)[C@@H](O[C@@H]2[C@@H](O)[C@H](O[C@H]3OC(CN)=CC[C@H]3N)[C@@H](N)C[C@H]2N)OC[C@]1(C)O` [SISOMICIN], for which the half-life in “clinical [1]” was 2.4 h. Moreover, in the data set “clinical [2]”, the Vd turned out to be 0.19 L/kg. The compound further returned an MRT in the data set “clinical [3]” of 3.2 h. This compound also returned a fraction unbound in the data set “clinical [4]” of 0.15. The compound further yielded a clearance in “clinical [5]” of 1 mL/min/kg.

On to `CC(=O)O[C@H]1C[C@]2(C)CC[C@H]3[C@@H]4C[C@H](N5CC[N+](C)(C)CC5)[C@H](OC(C)=O)[C@@]4(C)CC[C@@H]3[C@@]2(C)C[C@@H]1N1CC[N+](C)(C)CC1.[Br-].[Br-]` [PIPERCURONIUM], for which the half-life in the data set “clinical [1]” is 1.9 h. This compound also had a Vd in the data set “clinical [2]” of 0.35 L/kg. Further, the MRT in “clinical [3]” came out at 1.9 h. In the data set “clinical [4]”, this compound had a fraction unbound of 0.98. In the data set “clinical [5]”, this compound showed a clearance of 3 mL/min/kg.

Turning to `CO[C@@]1(NC(=O)Cc2cccs2)C(=O)N2C(C(=O)O)=C(COC(N)=O)CS[C@@H]21` [CEFOXITIN], in “clinical [1]”, the half-life is 0.81 h. In “clinical [2]”, this compound returned a Vd of 0.17 L/kg. The compound further returned an MRT in “clinical [3]” of 0.79 h. This compound also registered a fraction unbound in the data set “clinical [4]” of 0.73. The same compound registered a clearance in “clinical [5]” of 3.6 mL/min/kg.

For the compound `CO/N=C(\C(=O)N[C@@H]1C(=O)N2C(C(=O)O)=C(COC(N)=O)CS[C@H]12)c1ccco1` [CEFUROXIME], the half-life in “clinical [1]” was 1.1 h. Besides, in the data set “clinical [2]”, the Vd was found to be 0.15 L/kg. Besides, the MRT in the data set “clinical [3]” worked out at 1.1 h. Also, the fraction unbound in the data set “clinical [4]” stood at 0.12. In “clinical [5]”, this compound registered a clearance of 2.2 mL/min/kg.

Turning to `CN1C(=O)NC(=O)C(C)(C2=CCCCC2)C1=O` (stereo not given) [HEXOBARBITAL], the half-life in the data set “clinical [1]” is 4.9 h. In “clinical [2]”, this compound came in with a Vd of 1.1 L/kg. Further, in the data set “clinical [3]”, the MRT is 5.4 h. Besides, the fraction unbound in “clinical [4]” stood at 0.53. This compound came in with a clearance in the data set “clinical [5]” of 3.4 mL/min/kg.

In the case of `C[C@@H](CN1CC(=O)NC(=O)C1)N1CC(=O)NC(=O)C1` [DEXRAZOXANE], the half-life in the data set “clinical [1]” was 2.5 h. The Vd in “clinical [2]” is 0.55 L/kg. Further, the MRT in “clinical [3]” was 3 h. The fraction unbound in the data set “clinical [4]” was found to be 1. Also, in “clinical [5]”, the clearance came out at 3.1 mL/min/kg.

Consider `CN[C@@H]1C[C@H]2O[C@@](C)([C@@H]1OC)n1c3ccccc3c3c4c(c5c6ccccc6n2c5c31)C(=O)N[C@@H]4O`, for which, in “clinical [1]”, the half-life was 790 h. This compound returned a Vd in the data set “clinical [2]” of 0.15 L/kg. This compound returned an MRT in the data set “clinical [3]” of 680 h. This compound also showed a fraction unbound in the data set “clinical [4]” of 0.0022. In “clinical [5]”, this compound had a clearance of 0.0037 mL/min/kg.

Take `CC(=O)Oc1ccccc1C(=O)O` [ASPIRIN]: the half-life in “clinical [1]” was 0.26 h. This compound showed a Vd in “clinical [2]” of 0.22 L/kg. For the same compound, in the data set “clinical [3]”, the MRT was found to be 0.3 h. The compound further returned a fraction unbound in the data set “clinical [4]” of 0.68. The compound also had a clearance in the data set “clinical [5]” of 12 mL/min/kg.

Regarding `COc1ccc2cc1Oc1cc3c(cc1OC)CC[N+](C)(C)[C@H]3Cc1ccc(cc1)Oc1c(OC)c(OC)cc3c1[C@@H](C2)[N+](C)(C)CC3.[I-].[I-]` [METOCURINE IODIDE], in “clinical [1]”, the half-life was 5.1 h. For the same compound, the Vd in “clinical [2]” turned out to be 0.4 L/kg. The compound further came in with an MRT in “clinical [3]” of 5.6 h. Further, the unbound share (fraction unbound) in “clinical [4]” amounted to 0.65. The clearance in “clinical [5]” came out at 1.2 mL/min/kg.

Regarding `[H]/N=C(/N)N[C@H]1[C@H](O)[C@@H](O)[C@H](O[C@@H]2O[C@@H](C)[C@](O)(C=O)[C@H]2O[C@@H]2O[C@@H](CO)[C@H](O)[C@@H](O)[C@@H]2NC)[C@@H](N/C(N)=N\[H])[C@@H]1O` [STREPTOMYCIN], the half-life in the data set “clinical [1]” is 4.3 h. This compound showed a distribution volume (Vd) in “clinical [2]” of 0.34 L/kg. Besides, the mean residence time (MRT) in “clinical [3]” came out at 7.3 h. In the data set “clinical [4]”, the fraction unbound worked out at 0.65. Moreover, the clearance in “clinical [5]” turned out to be 0.78 mL/min/kg.

In “clinical [1]”, `CCN(CC)CCS(=O)(=O)[C@@H]1CCN2C(=O)c3coc(n3)CC(=O)C[C@H](O)/C=C(C)/C=C/CNC(=O)/C=C/[C@@H](C)[C@@H](C(C)C)OC(=O)[C@@H]12` [DALFOPRISTIN] showed a half-life of 0.74 h. Besides, in the data set “clinical [2]”, the Vd was 0.39 L/kg. The MRT in “clinical [3]” was 0.41 h. In the data set “clinical [4]”, the fraction unbound stood at 0.82. The same compound yielded a clearance in the data set “clinical [5]” of 16 mL/min/kg.

As to `CCOC(=O)C1(c2ccccc2)CCC=CC1N(C)C` (stereo not given) [TILIDINE], the half-life in the data set “clinical [1]” was 5 h. The Vd in the data set “clinical [2]” was 4 L/kg. This compound displayed an MRT in the data set “clinical [3]” of 4.2 h. Also, the fraction unbound in “clinical [4]” was 0.21. The compound further came in with a clearance in “clinical [5]” of 16 mL/min/kg.

Regarding `CC1(C)S[C@@H]2[C@H](NC(=O)Cc3ccccc3)C(=O)N2[C@H]1C(=O)O` [PENICILLIN G], in “clinical [1]”, the half-life was 0.7 h. Besides, the Vd in “clinical [2]” was determined as 0.24 L/kg. The compound also registered an MRT in “clinical [3]” of 0.58 h. Also, the fraction unbound in “clinical [4]” is 0.4. The same compound returned a clearance in the data set “clinical [5]” of 6.9 mL/min/kg.

In the data set “clinical [1]”, `Cc1ccc(-c2ncc(Cl)cc2-c2ccc(S(C)(=O)=O)cc2)cn1` [ETORICOXIB] gave a half-life of 26 h. In the data set “clinical [2]”, this compound yielded a Vd of 1.5 L/kg. Further, the MRT in “clinical [3]” turned out to be 32 h. The fraction unbound in “clinical [4]” turned out to be 0.081. This compound also showed a clearance in “clinical [5]” of 0.79 mL/min/kg.

`Cc1cccc(C)c1OCC(C)N` (stereo not given) [MEXILETINE] gave a half-life in “clinical [1]” of 9.9 h. Moreover, the Vd in the data set “clinical [2]” was 5.9 L/kg. This compound also showed an MRT in the data set “clinical [3]” of 12 h. For the same compound, the fraction unbound in the data set “clinical [4]” turned out to be 0.36. For the same compound, the clearance in the data set “clinical [5]” came to 8.3 mL/min/kg.

Regarding `COc1ccccc1Oc1c(NS(=O)(=O)c2ccc(C(C)(C)C)cc2)nc(-c2ncccn2)nc1OCCO` [BOSENTAN], the half-life in “clinical [1]” is 4.1 h. The same compound had a Vd in the data set “clinical [2]” of 0.29 L/kg. Further, in the data set “clinical [3]”, the MRT is 2.3 h. In addition, the fraction unbound in “clinical [4]” was 0.037. The same compound returned a clearance in the data set “clinical [5]” of 2.1 mL/min/kg.

`Cc1ccc(C(=O)Nc2ccc(S(=O)(=O)O)c3cc(S(=O)(=O)O)cc(S(=O)(=O)O)c23)cc1NC(=O)c1cccc(NC(=O)Nc2cccc(C(=O)Nc3cc(C(=O)Nc4ccc(S(=O)(=O)O)c5cc(S(=O)(=O)O)cc(S(=O)(=O)O)c45)ccc3C)c2)c1` [SURAMIN]: the half-life in “clinical [1]” was 1200 h. For the same compound, in the data set “clinical [2]”, the Vd worked out at 0.54 L/kg. Also, the MRT in “clinical [3]” was 1400 h. Besides, the fraction unbound in “clinical [4]” was 0.001. In addition, in “clinical [5]”, the clearance worked out at 0.0057 mL/min/kg.

For the compound `CO[C@@]1(NC(=O)CSCC#N)C(=O)N2C(C(=O)O)=C(CSc3nnnn3C)CS[C@@H]21` [CEFMETAZOLE], the half-life in the data set “clinical [1]” was 1.5 h. Further, the Vd in the data set “clinical [2]” came out at 0.13 L/kg. Also, the MRT in the data set “clinical [3]” was found to be 1.5 h. For the same compound, the fraction unbound in “clinical [4]” is 0.15. For the same compound, the clearance in the data set “clinical [5]” is 1.5 mL/min/kg.

The values are drawn from ChEMBL document CHEMBL1614632, “Trend analysis of a database of intravenous pharmacokinetic parameters in humans for 670 drug compounds” (Drug Metab Dispos, 2008).
